Assay results from patent EP0279079B1, “Purine derivatives as interleukin-1 inhibitors” (HOECHST MARION ROUSSEL, Inc., priority 1986, dated 1988).

Columns and labels:
[1] = system: polymorphonuclear neutrophil (PMN); assay: PMN chemotaxis (directed migration) under agarose, chemoattractant FMLP; assay type: cell-based, human; details: for directed migration inhibited by "LPS KINE": LPS stimulated mononuclear leukocyte conditioned M199 2% serum; for directed migration inhibited by interleukin-1: MEM containing IL-1 at 0 to 80 Units/ml
Procedure: (§1) Purified human IL-1 was obtained from Cistron Technology, Pinebrook, New Jersey. As is known, the production of IL-1 from macrophages or circulating monocytes can be stimulated by the presence of bacterial lipopolysaccharides. Stites et al, Basic and Clinical Immunology, page 87 (1984). Accordingly, in vitro-generated IL-1 was obtained through the incubation of mononuclear leukocytes. Mononuclear leukocytes (3 x 10^6/ml) from ficoll-hypaque separation were incubated in medium 199 (M199) containing 10% fresh autologous serum with or without lipopolysaccharides 5ng/ml or with or without supernatant from C. albicans culture for 18 hours at 37° C (10% CO2) in LAB-TEK Flaskettes (Miles Inc., Naperville, Illinois). The suspension was centrifuged (150g X 10 minutes) and the supernatant filtered (0.45 micron 4) and frozen (-70° C).
Neutrophils were placed in the center well of a triplet and the chemoattractant (FMLP 10^-7M) was placed in one outer well and M199 was placed in the opposite well. Following 2 hours incubation at 37° C the plates were fixed and stained and the zones of migration measured. The directed migration was the distance in mm that the leading front of PMN moved towards the chemoattractant.
(§2) Pure PMN (5 x 10^6/ml) were incubated for 30 minutes at 37°C with or without pentoxifylline (0.1 or 50 micrograms/ml) in M199 2% serum, "NO ADD", M199 2% serum containing LPS (1ng/ml), "LPS", mononuclear leukocyte conditioned M199 2% serum, "CONT KINE", or LPS stimulated mononuclear leukocyte conditioned M199 2% serum, "LPS KINE". The PMN were concentrated 10 fold prior to application in the under agarose chemotaxis assay.
as §2, with “5%” for “2%”, “supernatant from C. albicans culture, "C.ALB",” for “LPS (1ng/ml), "LPS",”, “C. albicans” for “LPS”, “"C. ALB” for “"LPS”
Pure PMN (5 x 10^6/ml) were incubated for 30 minutes at 37°C with or without pentoxifylline (0.1 or 50 micrograms/ml) in minimum essential medium (MEM) or MEM containing IL-1 at 0 to 80 Units/ml. The PMN were concentrated 10 fold prior to application inthe under agarose chemotaxis assay.

[2] = system: polymorphonuclear neutrophil (PMN); assay: PMN adherence on nylon fiber column; assay type: cell-based, human; details: for percent adherence of PMN on the nylon column: three conditions: M199 "control", IL-1 80U/ml, "LPS KINE"
Procedure: as §1
Purified PMN (5 x 10^6/ml) were incubated 30 minutes at 37°C in M199, "NONE", LPS (1ng/ml), "LPS", mononuclear leukocyte conditioned medium, "CONT KINES", or in LPS stimulated mononuclear leukocyte conditioned medium, "LPS KINES". One ml was pipetted onto the top of a nylon fiber column and incubated at 37°C for 30 minutes. The PMN in the effluent samples were counted and the percent adherence of PMN on the column determined.
Two tenths ml of purified PMN (1 x 10^7/ml) was incubated 30 minutes at 37°C in M199, "control", or M199 containing IL-1 (80U/ml), "IL-1", or in LPS stimulated mononuclear leukocyte conditioned medium, "LPS KINE", with or without pentoxifylline (0.1 or 50 micrograms/ml).
Following incubation the samples were diluted to a final concentration of 5 x 10^6/ml with M199 (2% serum). One ml was placed onto the top of a nylon fiber column and incubated at 37°C for 30 minutes. The PMN in the effluent samples were counted and the percent adherence of PMN on the nylon column calculated.

[3] = pentoxifylline 0.1 micrograms/ml
[4] = pentoxifylline 50 micrograms/ml

`CC(=O)CCCCn1c(=O)c2c(ncn2C)n(C)c1=O` [Pentoxifylline, pentoxifylline] was tested, and the “directed migration inhibited by "LPS KINE"” value [1, 3] was “increased”, the “directed migration inhibited by interleukin-1” value [1, 3] was “increased” and the “directed migration inhibited by "C.ALB KINE"” value ([1]; pentoxifylline 50 micrograms/ml, C. albicans stimulated mononuclear leukocyte conditioned M199 5% serum) was “increased”. For the same molecule, the “directed migration inhibited by "LPS KINE"” value [1, 4] was “increased”, the “directed migration inhibited by interleukin-1” value [1, 4] was “increased” and the “directed migration inhibited by "CONT KINE"” value ([1]; pentoxifylline 50 micrograms/ml, mononuclear leukocyte conditioned M199 5% serum) was “increased”. The “percent adherence of PMN on the nylon column” value [2, 3] was “decreased”, the “percent adherence of PMN on the column” value ([2]; pentoxifylline 50 micrograms/ml, all four conditions: M199 "NONE", LPS 1ng/ml, "CONT KINES", "LPS KINES", 30 minutes at 37°C) was “decreased” and the “percent adherence of PMN on the nylon column” value [2, 4] was “decreased”.
